Results on eight compounds are retold here after patent publication US10703727B2, “Method for preparing substituted 3-(2-anilino-1-cyclohexyl-1H-benzimidazol-5-yl)propanoic acid derivatives” (Bayer Pharma Aktiengesellschaft, priority 2015, dated 2020).

For experiment [1], the target named is T1, IDH1 R132H (Homo sapiens, UniProt O75874, R132H). Description: Inhibition of IDH1 R132H in a biochemical assay (NADPH consumption, luminescence). To be noted: 1.5 nM enzyme, 1 μM NADPH, 250 μM α-KG, 32° C., 30 minutes. The method, then: NADPH consumption is determined by luminescence.
Test compounds were assayed in a concentration range of 0.002 to 10 μM. The final DMSO concentration was 2.4%.
The luminescence was determined using a luminescence reader (10 seconds measurement time, 1 second integration period, 30% sensitivity). The drop in luminescence is proportional to the activity of mIDH1. IC50 values were determined by interpolation from plots of the relative luminescence against the inhibitor concentration.

Experiment [2] has as its target T1, IDH1 R132H. In words: Cellular assay: 2-HG in medium of LN229 R132H cells overexpressing mutated IDH. Particulars: 24 hours. The class given is cell-based. The procedure: Concentrations of (2R)-2-hydroxyglutarate (2HG) were determined in a medium of a cell line having an overexpession of the mutated isocitrate dehydrogenase protein. mIDH catalyses the NADPH-dependent reduction of alpha-ketoglutarate to 2-HG. […] The cells were obtained using trypsin and placed in 96-well titre plates. The cells were incubated overnight at 37° C. in 5% CO2. On the next day, test compounds were added to the cells. The final concentration of DMSO was 0.1% and DMSO controls were used. The titre plates were then placed in an incubator for 24 hours.
2-HG was measured using the method published by Balss et al. (Acta Neuropathol (2012) 124: 883-891). HClO4 was added to each well and the titre plates were centrifuged. Aliquots were removed and incubated with hydroxyglutarate dehydrogenase (HGDH), diaphorase, NAD+ and resazurin. The conversion of resazurin to resorufin was determined by fluorescence spectroscopy at Ex 540 nm Em 600 nm. The increase in the fluorescence signal is proportional to formation of 2-HG. IC50 values were determined by interpolation from plots of the relative fluorescence against the inhibitor concentration.

T1 sequence (O75874 whole entry R132H): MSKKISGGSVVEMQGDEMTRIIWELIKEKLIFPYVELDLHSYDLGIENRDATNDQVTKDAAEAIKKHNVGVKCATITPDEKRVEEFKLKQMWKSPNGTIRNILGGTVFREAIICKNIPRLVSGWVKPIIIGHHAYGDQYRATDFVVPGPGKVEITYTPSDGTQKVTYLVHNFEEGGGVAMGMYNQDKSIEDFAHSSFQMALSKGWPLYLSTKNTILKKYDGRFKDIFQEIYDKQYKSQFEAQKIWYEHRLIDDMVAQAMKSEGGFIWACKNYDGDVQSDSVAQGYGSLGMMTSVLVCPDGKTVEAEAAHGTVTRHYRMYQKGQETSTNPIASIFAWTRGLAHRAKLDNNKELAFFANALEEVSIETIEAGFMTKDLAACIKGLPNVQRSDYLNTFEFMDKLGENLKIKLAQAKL

A word on the IC50: it is the concentration that inhibits the measured activity by half. Low readings indicate greater potency in that assay, high ones weaker potency in that assay. Regarding `CC(C)c1ccc(Nc2nc3cc(CCC(=O)O)ccc3n2C2CCCC(C)(C)C2)cc1` (racemic) [(±) 3-(1-[3,3-Dimethylcyclohexyl]-2-{[4-(propan-2-yl)phenyl]amino}-1H-benzimidazol-5-yl)propanoic acid], the IC50 against IDH1 R132H [1] is 50 nM; at IDH1 R132H [2] it was 400 nM.
Taken in the same sequence, the figures for `CC(C)Oc1ccc(Nc2nc3cc(CCC(=O)O)ccc3n2C2CCCC(C)(C)C2)cc1` (racemic) [(±) 3-(1-[3,3-Dimethylcyclohexyl]-2-{[4-(propan-2-yloxy)phenyl]amino}-1H-benzimidazol-5-yl)propanoic acid] were 300 nM and 850 nM.
Taken in the same sequence, the figures for `CC1(C)CCCC(n2c(Nc3ccc(OC(F)(F)F)cc3)nc3cc(CCC(=O)O)ccc32)C1` (racemic) [(±) 3-(1-[3,3-dimethylcyclohexyl]-2-{[4-(trifluoromethoxy)phenyl]amino}-1H-benzimidazol-5-yl)propanoic acid] were 60 nM and 850 nM.
Taken in the same sequence, the figures for `CC(C)c1ccc(Nc2nc3cc(CCC(=O)O)ccc3n2[C@H]2C[C@@H](C)CC(C)(C)C2)cc1` (racemic) [(±) 3-(2-{[4-(Propan-2-yl)phenyl]amino}-1-[(cis)-3,3,5-trimethylcyclohexyl]-1H-benzimidazol-5-yl)propanoic acid] were 20 nM and 80 nM.
For the compound `CC(C)Oc1ccc(Nc2nc3cc(CCC(=O)O)ccc3n2[C@H]2C[C@@H](C)CC(C)(C)C2)cc1` (racemic) [(±) 3-(2-{[4-(Propan-2-yloxy)phenyl]amino}-1-[(cis)-3,3,5-trimethylcyclohexyl]-1H-benzimidazol-5-yl)propanoic acid], the IC50 amounted to 60 nM against IDH1 R132H [1] and 400 nM against IDH1 R132H [2].
As for `C[C@@H]1C[C@H](n2c(Nc3ccc(C(F)(F)F)cc3)nc3cc(CCC(=O)O)ccc32)CC(C)(C)C1` (racemic) [(±) 3-(2-{[4-(Trifluoromethyl)phenyl]amino}-1-[(cis)-3,3,5-trimethylcyclohexyl]-1H-benzimidazol-5-yl)propanoic acid], the IC50 against IDH1 R132H [1] came to 40 nM; against IDH1 R132H [2], 70 nM.
In the case of `COC(=O)CCc1ccc2c(c1)nc(Nc1ccc(C(C)C)cc1)n2[C@H]1C[C@@H](C)CC(C)(C)C1` (racemic) [(±) Methyl 3-(2-{[4-(propan-2-yl)phenyl]amino}-1-[(cis)-3,3,5-trimethylcyclohexyl]-1H-benzimidazol-5-yl)propanoate], the figures for the IC50 at IDH1 R132H [1] and against IDH1 R132H [2] were 170 nM and 90 nM, respectively.
Taken in the same sequence, the figures for `COC(=O)CCc1ccc2c(c1)nc(Nc1ccc(OC(F)(F)F)cc1)n2[C@H]1C[C@@H](C)CC(C)(C)C1` (racemic) [(±) Methyl 3-(2-{[4-(trifluoromethoxy)phenyl]amino}-1-[(cis)-3,3,5-trimethylcyclohexyl]-1H-benzimidazol-5-yl)propanoate] were 300 nM and 300 nM.
